Values after ≈ are worked out from the molar mass of the structure shown.
Key:
[1] = test system: VZV strain Ellen; assay: VZV Antiviral (ELISA) assay; format: cell-based; conditions: VZV strain Ellen in HFF cells; for % inhibition 10 ug/ml VZV: at 10 ug/ml
In short: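 Low-MOI (<0.1) Ellen infection of HFF overnight; cell mix plated 3.5×10^4/well with compound, DMEM + 2% FBS, 3 d, 37° C, 5% CO2. Fix, anti-gpII mAb ELISA, MUG substrate, fluorescence. IC50 vs compound-free signal.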

[2] = test system: HSV-1; assay: HSV Antiviral (ELISA) assay; format: cell-based; conditions: HSV-1 in Vero cells
In short: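 Vero cells in DMEM/2% FBS pretreated with compound 30 min before HSV-1 infection (MOI 0.006), then ~24 h at 37 °C. Viral gD detected by ELISA with β-galactosidase secondary and 4-methylumbelliferyl-galactoside (ex 365/em 450 nm); IC50 from fluorescence versus untreated infected cells.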

[3] = test system: HCMV recombinant mutant virus (RV145); assay: HCMV microtiter plate assay (beta-glucuronidase reporter); format: cell-based, Human Cytomegalovirus; conditions: HCMV in human foreskin fibroblasts
In short: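 Human foreskin fibroblasts were infected with RV145 in the presence of inhibitor. β-glucuronidase under a viral promoter served as the replication marker. At 96 h post-infection, lysates in pH 7.0 phosphate with Triton X-100/sarkosyl were assayed colorimetrically or fluorometrically, and IC50 was estimated from varying inhibitor amounts.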

Row | Compound | IC50 (ug/ml) VZV [1] [µg/mL] | % inhibition 10 ug/ml VZV [1] [%] | IC50 (ug/ml) HSV [2] [µg/mL] | IC50 (ug/ml) HCMV [3] [µg/mL]
1 | COc1cc(OC)c(NC(=S)Nc2ccc(NC(=O)c3cnns3)cc2)cc1Cl [Example 323] | >10 | 45 | 3 (≈ 6.67 µM) | 0.03 (≈ 0.0667 µM)
2 | CN(C)c1ccc(NC(=S)Nc2ccc(NC(=O)c3ccco3)cc2)cc1Cl [Example 330] | >10 | 29 | >10 | 0.15 (≈ 0.362 µM)
3 | CN(c1ccc(NC(=S)Nc2ccc(NC(=O)c3ccco3)cc2)cc1Cl)C1CCN(Cc2ccccc2)C1 (stereo not shown) [Example 331] | 5 (≈ 8.93 µM) | 98 | 1.8 (≈ 3.21 µM) | 2 (≈ 3.57 µM)
4 | CN1CCC(N(C)c2ccc(NC(=S)Nc3ccc(NC(=O)c4csnn4)cc3)cc2Cl)C1 (stereo not shown) [Example 341] | >10 | 50 | 2 (≈ 3.98 µM) | 0.15 (≈ 0.299 µM)
5 | CN1CCC(N(C)c2ccc(NC(=S)Nc3ccc(NC(=O)c4ccco4)cc3)cc2Cl)CC1 [Example 344] | 7 (≈ 14.1 µM) | 72 | 4 (≈ 8.03 µM) | 0.25 (≈ 0.502 µM)
6 | CN(C)c1ccc(NC(=S)Nc2ccc(NC(=O)c3ccccn3)cc2)cc1Cl [Example 350] | >10 | 50 | >10 | 1 (≈ 2.35 µM)
7 | CSc1ccc(NC(=S)Nc2ccc(NC(=O)c3ccccn3)cc2)cc1Cl [Example 351] | 3.5 (≈ 8.16 µM) | 90 | 3 (≈ 6.99 µM) | 0.3 (≈ 0.699 µM)
8 | COc1cc(C)c(Cl)cc1NC(=S)Nc1ccc(NC(=O)c2ccccn2)cc1 [Example 352] | >10 | 51 | 3 (≈ 7.03 µM) | 0.6 (≈ 1.41 µM)
9 | COc1cc(C)c(Cl)cc1NC(=S)Nc1ccc(NC(=O)c2ccco2)cc1 [Example 353] | 7 (≈ 16.8 µM) | 86 | 0.6 (≈ 1.44 µM) | 0.04 (≈ 0.0962 µM)
10 | CN1CCC(N(C)c2ccc(NC(=S)Nc3ccc(NC(=O)c4ccccn4)cc3)cc2Cl)C1 (stereo not shown) [Example 354] | 7 (≈ 14.1 µM) | 75 | 0.8 (≈ 1.62 µM) | 2 (≈ 4.04 µM)
11 | CN(C)CC(=O)Nc1ccc(NC(=S)Nc2ccc(NC(=O)c3ccco3)cc2)cc1Cl [Example 361] | >10 | 26 | 8 (≈ 17 µM) | 0.25 (≈ 0.53 µM)
12 | O=C(CN1CCCCC1)Nc1ccc(NC(=S)Nc2ccc(NC(=O)c3ccco3)cc2)cc1Cl [Example 365] | 5 (≈ 9.76 µM) | 75 | 10 (≈ 19.5 µM) | 0.035 (≈ 0.0684 µM)
13 | O=C(CN1CCOCC1)Nc1ccc(NC(=S)Nc2ccc(NC(=O)c3ccco3)cc2)cc1Cl [Example 368] | >10 | 20 | >10 | 0.35 (≈ 0.681 µM)
14 | CS(=O)(=O)Nc1ccc(NC(=S)Nc2ccc(NC(=O)c3ccco3)cc2)cc1Cl [Example 371] | >10 | 45 | >10 | >10
15 | CN1CCC(N(C)c2ccc(NC(=S)Nc3ccc(NC(=O)c4ccccn4)cc3)cc2Cl)CC1 [Example 376] | 7 (≈ 13.8 µM) | 83 | 3 (≈ 5.89 µM) | 0.8 (≈ 1.57 µM)
16 | O=C(Nc1ccc(NC(=S)Nc2ccc(Cl)c(C(F)(F)F)c2)cc1)c1ccco1 [Example 378] | >10 | 31 | >10 | 0.033 (≈ 0.075 µM)
17 | O=C(Nc1ccc(NC(=S)Nc2ccc(Cl)c(C(F)(F)F)c2)cc1)c1ccccn1 [Example 379] | >10 | 27 | >10 | >10
18 | O=C(CN1CCCCC1)Nc1ccc(NC(=S)Nc2ccc(NC(=O)c3csnn3)cc2)cc1Cl [Example 391] | 6 (≈ 11.3 µM) | 97 | 8 (≈ 15.1 µM) | 0.019 (≈ 0.0358 µM)
19 | CN(C)CCSCC(=O)Nc1ccc(NC(=S)Nc2ccc(NC(=O)c3ccco3)cc2)cc1Cl [Example 396] | >10 | 26 | >10 | 0.7 (≈ 1.32 µM)
